Laboratory results published in publication PMC12467033, “Exploring the Inhibitory Potential of Six Porphyrin Compounds Against α-Amylase and α-Glucosidase Linked to Diabetes” (Biomolecules, 2025).
Values joined by “and” are separate entries in the source; they are usually repeats but may differ in a detail not shown here. Equal entries are not always repeated. Where two headings read alike, the source gives them in different places.

What was measured:
[1] = molecular target: T1, α-amylase (Sus scrofa, UniProt P00690); assay: Three-dimensional fluorescence spectroscopy of α-amylase complexes; details: 298 K; TAPP 2.5, THPP 10, TCPP 10, Fe–TCPP 12.5, Ni–TCPP 17.5, Cu–TCPP 10 μg/mL
T1 sequence (P00690 16-511): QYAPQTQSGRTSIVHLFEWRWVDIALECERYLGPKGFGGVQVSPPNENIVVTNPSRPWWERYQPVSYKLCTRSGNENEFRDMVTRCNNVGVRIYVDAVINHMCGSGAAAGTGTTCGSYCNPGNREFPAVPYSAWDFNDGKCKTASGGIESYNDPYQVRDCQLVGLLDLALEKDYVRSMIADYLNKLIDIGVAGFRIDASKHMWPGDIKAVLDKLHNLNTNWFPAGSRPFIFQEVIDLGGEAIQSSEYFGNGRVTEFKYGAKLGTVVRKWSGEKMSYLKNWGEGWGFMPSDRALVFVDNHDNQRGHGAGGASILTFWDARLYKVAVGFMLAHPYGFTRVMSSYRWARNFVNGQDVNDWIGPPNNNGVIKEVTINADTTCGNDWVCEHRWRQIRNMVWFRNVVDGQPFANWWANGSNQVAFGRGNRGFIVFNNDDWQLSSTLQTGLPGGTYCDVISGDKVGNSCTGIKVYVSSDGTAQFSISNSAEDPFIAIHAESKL
Procedure: At 298 K, with excitation wavelengths ranging from 200 to 600 nm (2 nm increments) and emission wavelengths from 200 to 600 nm, the influence of small molecules on enzyme conformation was assessed by examining peaks in 3D fluorescence spectra [41].

[2] = molecular target: T1, α-amylase; assay: Fluorescence quenching, binding and thermodynamics with α-amylase
From the text: In the α-amylase experiment, a series of porphyrins and amylase (200 U/L) were mixed in a volume ratio of 1:1.
(§1) The Stern–Volmer equation [35] was adopted to determine the quenching mechanisms between six porphyrin compounds and both enzymes in the experimental group, with Formula (6):(6) F0/F=1+Ksv[Q]=1+Kqτ0[Q]
(§2) The Stern–Volmer equation was adapted based on experimental data to more accurately characterize the quenching behavior [36], with Formula (7):(7) F0/F=e^Ksv[Q]=e^Kqτ0[Q]
(§3) In the formula, the fluorescence quenching ratio was calculated as F0/F, where F0 corresponds to the emission intensity of pure α-amylase solution (control) and F denotes the intensity measured after the incremental addition of porphyrin ligands. KSV and Kq denote the Stern–Volmer quenching constant and the bimolecular quenching rate constant, respectively, τ0 (10^−8 s) is the average fluorescence lifetime of the fluorophore in the absence of quencher, and [Q] indicates the concentration of porphyrin compounds.
(§4) Due to the presence of an internal filtration effect, a decrease in the fluorescence intensity of the system may occur. Therefore, all fluorescence data were corrected using Formula (8) to eliminate the internal filtration effect.(8) Fcor=Fobse^(Aex+Aem)/2
(§5) The evaluation of the interaction forces between porphyrin compounds and the two enzymes can be achieved by calculating thermodynamic parameters. When both ΔH^0 and ΔS^0 are positive, the predominant interaction force is hydrophobic. When both ΔH^0 and ΔS^0 are negative, the main forces are hydrogen bonding and van der Waals forces. When ΔH^0 < 0 and ΔS^0 > 0, the primary interaction is electrostatic attraction.
(§6) The thermodynamic parameters were calculated using Formulas (9) and (10), and then the Van’t Hoff plot for the interactions between the porphyrin compounds and the two enzymes was generated by plotting lnKa on the Y-axis versus 1/T on the X-axis.(9) lnKa=−ΔH^0/RT+ΔS^0/R (10) ΔG^0=ΔH^0−TΔS^0=−RTlnKa

[3] = molecular target: T1, α-amylase; assay: Mode of α-AMY inhibition (reversibility, Lineweaver–Burk kinetics); type: biochemical
From the text: (§7) In the experiment, the concentration of the fixed substrate Gal-G2-α-CNP/pNPG solution was 5 mmol/L, and the concentrations of the two enzymes (100, 200, 300, 400 U/L) were used to determine the effect of different concentrations of porphyrins on enzyme activity. The concentration of the enzyme was 200 U/L, and the concentration of the substrate Gal-G2-α-CNP/pNPG solution (2.5, 5, 7.5, 10 mmol/L) was used to determine the effect of different concentrations of porphyrins on the enzyme-catalyzed substrate activity.
(§8) Upon identifying the type of inhibition, the kinetic equations vary for different inhibition types.
(§9) In the formula, v, Vmax, Km, Ki, and Kis represent the reaction rate, maximum reaction rate, Michaelis constant, and free enzyme inhibition constant, respectively, and the binding enzyme inhibition constant. [S] denotes the substrate concentration. [I] denotes the inhibitor concentration.

[4] = molecular target: T2, α-glucosidase (Saccharomyces cerevisiae, UniProt P53341); assay: Fluorescence quenching, binding and thermodynamics with α-glucosidase
Procedure: In the α-amylase experiment, a series of porphyrins and amylase (200 U/L) were mixed in a volume ratio of 1:1. In the α-glucosidase experiment, the glucosidase concentration was 400 U/L, mixed in a volume ratio of 1:1; the samples were maintained at three different temperatures (298, 304, and 310 K) for 30 min, with excitation at 280 nm and emission scanning from 300 to 500 nm.
as §1, §2, §3, §4, §5, §6

[5] = molecular target: T2, α-glucosidase; type: biochemical
From the text: as §7, §8, §9

[6] = enzyme 100–400 U/L, substrate 5 mmol/L
[7] = free enzyme inhibition constant

T2 sequence (P53341 whole entry): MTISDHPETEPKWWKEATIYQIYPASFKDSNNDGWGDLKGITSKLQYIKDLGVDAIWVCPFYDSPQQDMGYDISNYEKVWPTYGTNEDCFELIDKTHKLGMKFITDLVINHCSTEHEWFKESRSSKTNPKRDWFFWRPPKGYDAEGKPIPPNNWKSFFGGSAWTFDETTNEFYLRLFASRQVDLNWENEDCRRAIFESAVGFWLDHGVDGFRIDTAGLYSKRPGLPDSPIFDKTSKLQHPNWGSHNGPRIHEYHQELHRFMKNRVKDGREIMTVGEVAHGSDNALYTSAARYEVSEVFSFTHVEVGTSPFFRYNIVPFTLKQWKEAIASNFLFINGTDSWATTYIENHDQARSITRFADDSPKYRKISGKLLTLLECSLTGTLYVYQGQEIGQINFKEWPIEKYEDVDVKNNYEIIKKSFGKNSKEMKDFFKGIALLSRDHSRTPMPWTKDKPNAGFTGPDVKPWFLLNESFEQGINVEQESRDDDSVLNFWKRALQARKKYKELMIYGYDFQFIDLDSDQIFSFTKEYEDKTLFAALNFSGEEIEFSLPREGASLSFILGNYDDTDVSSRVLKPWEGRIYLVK

For `O=C(O)c1ccc(-c2c3nc(c(-c4ccc(C(=O)O)cc4)c4ccc([nH]4)c(-c4ccc(C(=O)O)cc4)c4nc(c(-c5ccc(C(=O)O)cc5)c5ccc2[nH]5)C=C4)C=C3)cc1.[Ni+2]` [Ni–TCPP, nickel (II) meso-tetra (4-carboxyphenyl) porphine], the “Peak 1 Fluorescence Intensity” value [1] was 225.2, the “Peak 2 Fluorescence Intensity” value [1] was 9.012 and the “quenching mechanism of α-amylase fluorescence” value ([2]; Stern–Volmer plots, 298–310 K) was “pure static quenching”. For the same compound, the “Ka (binding constant)” value ([2]; T 298 K) was 99.31 ± 0.12 ×10^5 L/mol, the Kq ([2]; T 298 K) was 9.78 ± 0.03 ×10^12 L/mol/s and the Ksv ([2]; T 298 K) was 9.78 ± 0.03 ×10^4 L/mol. For the same compound, the “n (number of binding sites)” value ([2]; T 298 K) was 1.44, the “ΔG^0” value ([2]; T 298 K) was -9.541 ± 0.019 kcal/mol and the “Ka (binding constant)” value ([2]; T 304 K) was 5.75 ± 0.04 ×10^5 L/mol. For the same compound, the Kq ([2]; T 304 K) was 8.47 ± 0.07 ×10^12 L/mol/s, the Ksv ([2]; T 304 K) was 8.47 ± 0.07 ×10^4 L/mol and the “n (number of binding sites)” value ([2]; T 304 K) was 1.19. The “ΔG^0” value ([2]; T 304 K) was -8.011 ± 0.014 kcal/mol, the “Ka (binding constant)” value ([2]; T 310 K) was 0.61 ± 0.02 ×10^5 L/mol and the Kq ([2]; T 310 K) was 7.11 ± 0.05 ×10^12 L/mol/s. For the same compound, the Ksv ([2]; T 310 K) was 7.11 ± 0.05 ×10^4 L/mol, the “n (number of binding sites)” value ([2]; T 310 K) was 0.99 and the “ΔG^0” value ([2]; T 310 K) was -6.785 ± 0.017 kcal/mol. The “ΔH^0” value ([2]; Van’t Hoff, 298–310 K) was -78.002 ± 0.043 kcal/mol, the “ΔS^0” value ([2]; Van’t Hoff, 298–310 K) was −961.90 ± 0.08 J/mol/k and the Km ([3]; C 40 μg/mL) was 3.6229 ± 0.1082 µg/mL. For the same compound, the Vmax ([3]; C 40 μg/mL) was 0.1456 ± 0.0043 ΔOD/min, the Km ([3]; C 80 μg/mL) was 3.6134 ± 0.1167 µg/mL and the Vmax ([3]; C 80 μg/mL) was 0.1238 ± 0.0040 ΔOD/min. The Km ([3]; C 120 μg/mL) was 3.6072 ± 0.0593 µg/mL, the Vmax ([3]; C 120 μg/mL) was 0.1032 ± 0.0017 ΔOD/min and the Km ([3]; C 160 μg/mL) was 3.6027 ± 0.1141 µg/mL. The Vmax ([3]; C 160 μg/mL) was 0.0901 ± 0.0029 ΔOD/min, the Km ([3]; C 200 μg/mL) was 3.5987 ± 0.0938 µg/mL and the Vmax ([3]; C 200 μg/mL) was 0.0799 ± 0.0021 ΔOD/min. The “type of inhibition of α-amylase” value ([3]; Lineweaver–Burk plots) was “non-competitive inhibition”, the “reversibility of inhibition of α-amylase” value [3, 6] was “reversible inhibition” and the Ki [3, 7] was 157.9542 ± 0.1375 µg/mL. For the same compound, the “binding constants K” value ([4]; 310 K) was “(1.83 ± 0.01) × 10^5 L·mol^−1”, the “quenching mechanism of α-glucosidase fluorescence” value ([4]; Stern–Volmer plots, 298–310 K) was “static quenching” and the “Ka (binding constant)” value ([4]; T 298 K) was 2.34 ± 0.04 ×10^5 L/mol. The Kq ([4]; T 298 K) was 17.73 ± 0.15 ×10^12 L/mol/s, the Ksv ([4]; T 298 K) was 17.73 ± 0.15 ×10^4 L/mol and the “n (number of binding sites)” value ([4]; T 298 K) was 1.03. For the same compound, the “ΔG^0” value ([4]; T 298 K) was -7.321 ± 0.0311 kcal/mol, the “Ka (binding constant)” value ([4]; T 304 K) was 2.09 ± 0.02 ×10^5 L/mol and the Kq ([4]; T 304 K) was 14.23 ± 0.09 ×10^12 L/mol/s. For the same compound, the Ksv ([4]; T 304 K) was 14.23 ± 0.09 ×10^4 L/mol, the “n (number of binding sites)” value ([4]; T 304 K) was 1.04 and the “ΔG^0” value ([4]; T 304 K) was -7.4 ± 0.014 kcal/mol. The “Ka (binding constant)” value ([4]; T 310 K) was 1.83 ± 0.01 ×10^5 L/mol, the Kq ([4]; T 310 K) was 12.31 ± 0.08 ×10^12 L/mol/s and the Ksv ([4]; T 310 K) was 12.31 ± 0.08 ×10^4 L/mol. The “n (number of binding sites)” value ([4]; T 310 K) was 1.03, the “ΔG^0” value ([4]; T 310 K) was -7.464 ± 0.017 kcal/mol and the “ΔH^0” value ([4]; Van’t Hoff, 298–310 K) was -3.786 ± 0.012 kcal/mol. For the same compound, the “ΔS^0” value ([4]; Van’t Hoff, 298–310 K) was 49.67 ± 0.08 J/mol/k, the Km [5] was 3.0491 ± 0.0776 µg/mL and 3.3243 ± 0.0748 µg/mL and 3.5279 ± 0.0812 µg/mL and 3.8090 ± 0.1419 µg/mL and 4.1248 ± 0.0704 µg/mL and the Vmax ([5]; C 5 μg/mL) was 0.1036 ± 0.0026 ΔOD/min. The Vmax ([5]; C 7.5 μg/mL) was 0.0909 ± 0.0020 ΔOD/min, the Vmax ([5]; C 10 μg/mL) was 0.0791 ± 0.0018 ΔOD/min and the Vmax ([5]; C 15 μg/mL) was 0.0628 ± 0.0023 ΔOD/min. The Vmax ([5]; C 25 μg/mL) was 0.0444 ± 0.0008 ΔOD/min, the “type of inhibition of α-glucosidase” value ([5]; Lineweaver–Burk plots) was “mixed type” and the “reversibility of inhibition of α-glucosidase” value [5, 6] was “reversible inhibition”. For the same compound, the Kis ([5]; enzyme–substrate complex inhibition constant) was 9.2257 ± 0.0312 µg/mL and the Ki [5, 7] was 3.8703 ± 0.0201 µg/mL.
